# Data: US6630612B2, “5-HT3 receptor assay using transgenic mammal” (University of New Mexico, priority 1997, dated 2003)
# “And” between values parts separate entries of the source, which are not always exact repeats. Equal values may be shown once.
# What was measured:
# 5-HT3 receptor [1] = molecular target: T1, 5-HT3 receptor (Mus musculus, UniProt P23979); assay: Specific binding with 3H-GR65630 in membranes from various tissues of transgenic and B6SJL/F1 control mice; conditions: Cortex membranes, transgenic mice
# T1 construct: cortices and cerebelli were removed and homogenized by hand in ice cold Hepes buffer; from tissue; host or cells: Washed membranes from cortex, cerebellum, liver, lung, heart, spleen, kidney, small intestine, testis and skeletal muscle of transgenic and B6SJL/F1 control mice
# T1 sequence (P23979 24-489): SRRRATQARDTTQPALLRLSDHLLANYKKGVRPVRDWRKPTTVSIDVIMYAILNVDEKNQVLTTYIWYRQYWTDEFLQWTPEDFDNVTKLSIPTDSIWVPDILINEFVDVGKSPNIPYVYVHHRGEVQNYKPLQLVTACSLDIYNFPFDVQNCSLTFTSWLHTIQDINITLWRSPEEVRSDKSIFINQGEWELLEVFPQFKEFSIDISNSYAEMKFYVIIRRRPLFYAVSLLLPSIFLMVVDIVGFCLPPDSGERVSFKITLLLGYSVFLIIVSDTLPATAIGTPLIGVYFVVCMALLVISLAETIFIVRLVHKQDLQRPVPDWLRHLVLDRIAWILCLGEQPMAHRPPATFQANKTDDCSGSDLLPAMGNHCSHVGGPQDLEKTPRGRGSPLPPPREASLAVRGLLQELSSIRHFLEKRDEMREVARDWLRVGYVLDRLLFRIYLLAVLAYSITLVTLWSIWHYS
# Protocol: (§1) For homogenate binding studies, cortices and cerebelli were removed and homogenized by hand in ice cold Hepes buffer (50 mM, pH 7.5) and centrifuged at 500 g for 5 minutes at 4° C. Liver, lung, heart, spleen, kidney, small intestines, testes, and skeletal muscle (from hind limb) were homogenized with an Omni tissue chopper. Membranes were pelleted by centrifugation at 20,000 g for 20 minutes at 4° C. and the pellets washed twice before suspension to 3 mg/ml in a buffer containing 145 mM NaCl, 5 mM KCl, 1, mM MgCl2, 1 mM CaCl2, 10 mM glucose, and 10 mM TRIS, pH 7.5. Saturation curves were carried out with 0.0125-25 nM ^3H-GR65630 at 37° C. for 30 minutes with 300 μg total protein. Incubation was terminated by dilution with ×10 volume (5 ml) of ice-cold buffer followed by rapid filtration onto Whatman GF/B filters. Filters were washed twice with 5 ml ice-cold buffer and counted by scintillation counting in EcoLite (ICN) scintillation cocktail. Non-specific binding (NSB) was determined with 0.125-256 μM tropisetron. Displacement binding was carried out the same as saturation binding except with 1 nM ^3H-GR65630 and NSB defined with 10 μM tropisetron. Protein concentrations were determined by Folin phenol reagent (Lowry et al., J. Biol. Chem. 193: 256-275, 1951).
# 5-HT3 receptor [2] = assay: as above; design: species or system mouse
# Protocol: as §1
# 5-HT3 receptor [3] = molecular target: T1, 5-HT3 receptor; assay: Homogenate saturation binding with 3H-GR65630 in cortical membranes of transgenic and B6SJL/F1 control mice
# Protocol: as §1
# 5-HT3 receptor [4] = assay: as above; design: species or system mouse; conditions: cortical membranes, B6SJL/F1 control mice
# Protocol: as §1
# [5] = cortical membranes, 5-HT3 transgenic mice
compound,measurement,setting,value
Cc1[nH]cnc1CCC(=O)c1cn(C)c2ccccc12 [^3H-GR65630],Specific binding (means ± SEM),5-HT3 receptor [1],969.6 ± 190.5 fmol/mg protein
same,Specific binding (means ± SEM),"5-HT3 receptor [2]; Cortex membranes, B6SJL/F1 control mice",7.2 ± 2.9 fmol/mg protein
same,Specific binding (means ± SEM),"5-HT3 receptor [2]; Heart membranes, B6SJL/F1 control mice",0.25 ± 5.4 fmol/mg protein
same,Specific binding (means ± SEM),"5-HT3 receptor [2]; Heart membranes, transgenic mice",3.9 ± 1.8 fmol/mg protein
same,Specific binding (means ± SEM),"5-HT3 receptor [2]; Kidney membranes, B6SJL/F1 control mice",3.9 ± 3.1 fmol/mg protein
same,Specific binding (means ± SEM),"5-HT3 receptor [2]; Kidney membranes, transgenic mice",16.9 ± 8.0 fmol/mg protein
same,Specific binding (means ± SEM),"5-HT3 receptor [2]; Lung membranes, transgenic mice",2.7 ± 4.1 fmol/mg protein
same,Specific binding (means ± SEM),"5-HT3 receptor [2]; Skeletal muscle membranes, B6SJL/F1 control mice",2.7 ± 0.4 fmol/mg protein
same,Specific binding (means ± SEM),"5-HT3 receptor [2]; Skeletal muscle membranes, transgenic mice",8.0 ± 2.7 fmol/mg protein
same,Specific binding (means ± SEM),"5-HT3 receptor [2]; Small intestines membranes, B6SJL/F1 control mice",26.6 ± 11.0 fmol/mg protein
same,Specific binding (means ± SEM),"5-HT3 receptor [2]; Small intestines membranes, transgenic mice",26.0 ± 7.7 fmol/mg protein
same,Specific binding (means ± SEM),"5-HT3 receptor [2]; Spleen membranes, B6SJL/F1 control mice",1.7 ± 3.9 fmol/mg protein
same,Specific binding (means ± SEM),"5-HT3 receptor [2]; Spleen membranes, transgenic mice",8.2 ± 7.2 fmol/mg protein
same,Bmax,5-HT3 receptor [3]; [5],2155 fmol/mg protein and 2155±129 fmol/mg protein
same,Hill no. (Hill plot slope),5-HT3 receptor [3]; [5],1.0
same,Kd,5-HT3 receptor [3]; [5],1.7 nM
same,Bmax,5-HT3 receptor [3]; transgenic mice membranes,2.5 pmol/mg protein
same,Bmax,5-HT3 receptor [4],21 fmol/mg protein and 21±10 fmol/mg protein
same,Kd,"5-HT3 receptor [4]; n=3 (FIG. 2 legend, unit inferred)",1.6 ± 2.3 nM
